Series [1] is described as follows: TSA/SA isomer ratio of lanthanide complexes by 1H NMR. Type of series: physicochemical. To be noted: 25° C., 400 MHz, pD 7.0, aqueous solution. From the text:
(§1) In aqueous solution, the ratio of TSA/SA isomers of Eu(III) and Yb(III) complexes in DOTA-like systems can be easily determined by ^1H NMR as two well-defined sets of six resonances are observed for the diastereotopic protons in CH2CO and NCH2CH2N.^13 Although the Gd(III) complexes cannot be analyzed by NMR, their ratio of isomers are expected to be similar to those of the Eu(III) and Yb(III) complexes because the ionic radius of Gd(III) is similar to the ionic radius of Eu(III) and Yb(III).
(§2) The conformational properties of the lanthanide complexes were investigated by both HPLC and NMR spectroscopy. The ^1H NMR spectra of the four europium chiral DOTA-based complexes are compared in FIG. 3. […] In the cases of [EuL3]^− and [EuL4]^−, the twisted antiprismatic isomers were more dominant, with the ratio of 6.52 for [EuL3]^− and 13.50 for [EuL4]^− observed.
The ratio of TSA/SA isomers for [YbL1]^− (0.28) and [YbL2]^− (0.93) was relatively lower than that of the europium analogues. The ratio change from [YbL2]^− to [YbL3]^− was also not as apparent.

The conditions of series [2]: amine bond, 12-membered ring.
A short description of series [3]: Relaxivity (r1, r2) measurement of Gd(III) complexes in water, BSA and human plasma. Type of series: physicochemical. More on the design: r1 Human Plasma (1.5 T): unit not given beside the values. To be noted: 1.5 T, 37° C. On the procedure:
This is very important because the huge difference in the inner-sphere coordinated water exchange rate between the two isomers is a key factor for applications, for example, as MRI contrast agents. To show their potential value, the two diastereomers of [GdL2]^− ([GdL2A]^− and [GdL2B]^−) were separated and their relaxivities were measured. The relaxivities of [GdL1]^−, [GdL2]^−, [GdL2A]^−, [GdL2B]^− and [GdDOTA]^− in water at different magnetic strengths (1.5 T and 11.7 T) were compared, with or without the presence of BSA and human plasma (1.5 T) (Table 1). It is clearly seen that the complexes of [GdL1]^−, [GdL2A]^− and [GdL2B]^− have relaxivity properties similar to that of the [GdDOTA]^− complex.

Series [4] in a line: Stability of isomers on heating and storage by 1H NMR. Type of series: physicochemical. To be noted: solution of [EuL2A]− and [EuL2B]− at 1:0.25, 90° C. for 3 days.
From the text: as §1, §2
The stability of the complexes toward racemization over time was also monitored by ^1H NMR (FIG. 20). […] Nevertheless, the original set of peaks existed predominately when the pD was adjusted from 6.0 to 7.5 and further heated for 12 h at 90° C. It can be observed that while the purity of the ligands may not be highly satisfactory, pure complexes could be obtained by HPLC separation after complexation. This phenomenon indicates the purification of DOTA-based ligands should be handled with care.

Like-named read-outs stand apart in the source and are kept apart here.

As to `O=C([O-])CN1CC(Cc2ccccc2)N(CC(=O)[O-])CC(Cc2ccccc2)N(CC(=O)[O-])CC(Cc2ccccc2)N(CC(=O)[O-])CC1Cc1ccccc1.[Yb+3]` (centres unmarked) [[YbL4]^−], the “isomer ratio of TSA/SA” value in series [1] is given as “essentially one TSA isomer”. Regarding `CC[C@H]1CN(Cc2ccccc2)[C@@H](CC)CN(Cc2ccccc2)[C@@H](CC)CN(Cc2ccccc2)[C@@H](CC)CN1Cc1ccccc1`, the ring closure, isolated yield in series [2] was 27.5%.

Consider `CC[C@H]1CN(CC(=O)[O-])[C@@H](CC)CN(CC(=O)[O-])[C@@H](CC)CN(CC(=O)[O-])[C@@H](CC)CN1CC(=O)[O-].[Yb+3]` [[YbL2]^−], for which the “isomer ratio of TSA/SA” value in series [1] is on record as 0.93. For `C[C@H]1CN(CC(=O)[O-])[C@@H](C)CN(CC(=O)[O-])[C@@H](C)CN(CC(=O)[O-])[C@@H](C)CN1CC(=O)[O-].[Yb+3]` [[YbL1]^−], in series [1], the “isomer ratio of TSA/SA” value was 0.28. For the compound `CC[C@H]1CN(CC(=O)[O-])[C@@H](CC)CN(CC(=O)[O-])[C@@H](CC)CN(CC(=O)[O-])[C@@H](CC)CN1CC(=O)[O-].[Eu+3]` [[EuL2]^−], the “isomer ratio of TSA/SA” value in series [1] is 1.27. For the compound `O=C([O-])CN1CCN(CC(=O)[O-])CCN(CC(=O)[O-])CCN(CC(=O)[O-])CC1.[Gd+3]` [[GdDOTA]^−, reference compound], in series [3], the “r1 4.5 w/v BSA (1.5 T)” value was determined as 4.1, the “r1 Human Plasma (1.5 T)” value stood at 4.0 and the “r1 Water (1.5 T)” value is recorded as 3.2. With `CC(C)C[C@H]1CN(Cc2ccccc2)[C@@H](CC(C)C)CN(Cc2ccccc2)[C@@H](CC(C)C)CN(Cc2ccccc2)[C@@H](CC(C)C)CN1Cc1ccccc1`, the ring closure, isolated yield in series [2] is 28.3%. In the case of `C[C@H]1CN(CC(=O)[O-])[C@@H](C)CN(CC(=O)[O-])[C@@H](C)CN(CC(=O)[O-])[C@@H](C)CN1CC(=O)[O-].[Eu+3]` [[EuL1]^−], the “isomer ratio of TSA/SA” value in series [1] was determined as 0.75. As to `c1ccc(C[C@H]2CN(Cc3ccccc3)[C@@H](Cc3ccccc3)CN(Cc3ccccc3)[C@@H](Cc3ccccc3)CN(Cc3ccccc3)[C@@H](Cc3ccccc3)CN2Cc2ccccc2)cc1`, in series [2], the ring closure, isolated yield is 25%. With `CC(C)(C)OC(=O)NCCCC[C@H]1CN(Cc2ccccc2)[C@@H](CCCCNC(=O)OC(C)(C)C)CN(Cc2ccccc2)[C@@H](CCCCNC(=O)OC(C)(C)C)CN(Cc2ccccc2)[C@@H](CCCCNC(=O)OC(C)(C)C)CN1Cc1ccccc1`, in series [2] (from CC(C)(C)OC(=O)NCCCCC1C[N@@]1Cc1ccccc1, TsOH.H2O, MeCN, 82.1 mM, 25.0 °C), the ring closure, isolated yield came to 24.5%. `O=[N+]([O-])c1ccc(C[C@H]2CN(Cc3ccccc3)[C@@H](Cc3ccc([N+](=O)[O-])cc3)CN(Cc3ccccc3)[C@@H](Cc3ccc([N+](=O)[O-])cc3)CN(Cc3ccccc3)[C@@H](Cc3ccc([N+](=O)[O-])cc3)CN2Cc2ccccc2)cc1`: in series [2] (from O=[N+]([O-])c1ccc(CC2C[N@@]2Cc2ccccc2)cc1, TsOH.H2O, MeCN, 84.7 mM, 25.0 °C), the ring closure, isolated yield was determined as 20.6%.

For `CC[C@H]1CN(CC(=O)[O-])[C@@H](CC)CN(CC(=O)[O-])[C@@H](CC)CN(CC(=O)[O-])[C@@H](CC)CN1CC(=O)[O-].[Gd+3]` (single isomer, unassigned) [[GdL2B]^−], in series [3], the “r1 4.5 w/v BSA (1.5 T)” value was determined as 3.6, the “r1 Human Plasma (1.5 T)” value was 3.5 and the “r1 Water (1.5 T)” value was found to be 3.0.

Turning to `CC[C@H]1CN(CC(=O)[O-])[C@@H](CC)CN(CC(=O)[O-])[C@@H](CC)CN(CC(=O)[O-])[C@@H](CC)CN1CC(=O)[O-].[Eu+3]` (single isomer, unassigned) [[EuL2A]^−], the “isomer ratio after heating (lack of racemization)” value in series [4] is on record as “remained at the same ratio”. As to `O=C([O-])CN1CC(Cc2ccccc2)N(CC(=O)[O-])CC(Cc2ccccc2)N(CC(=O)[O-])CC(Cc2ccccc2)N(CC(=O)[O-])CC1Cc1ccccc1.[Eu+3]` (centres unmarked) [[EuL4]^−], in series [1], the “isomer ratio of TSA/SA” value is listed as 13.50. In the case of `CC[C@H]1CN(CC(=O)[O-])[C@@H](CC)CN(CC(=O)[O-])[C@@H](CC)CN(CC(=O)[O-])[C@@H](CC)CN1CC(=O)[O-].[Eu+3]` (single isomer, unassigned) [[EuL2B]^−], the “isomer ratio after heating (lack of racemization)” value in series [4] is “remained at the same ratio”. For `CC(C)C[C@H]1CN(CC(=O)[O-])[C@@H](CC(C)C)CN(CC(=O)[O-])[C@@H](CC(C)C)CN(CC(=O)[O-])[C@@H](CC(C)C)CN1CC(=O)[O-].[Eu+3]` [[EuL3]^−], in series [1], the “isomer ratio of TSA/SA” value is 6.52.

The record behind these values is US11357873B2, “Chiral cyclen compounds and their uses” (THE HONG KONG POLYTECHNIC UNIVERSITY, priority 2016, dated 2022).
